In ChEMBL document CHEMBL1142377, “Discovery of a novel class of 1,3-dioxane-2-carboxylic acid derivatives as subtype-selective peroxisome proliferator-activated receptor alpha (PPARalpha) agonists” (Bioorg Med Chem Lett, 2008):
pEC50: −log10 of the molar value.

Assays:
[1] = biological target: T1, Peroxisome proliferator-activated receptor alpha (Homo sapiens, UniProt Q07869); test: Agonist activity at human PPARalpha expressed in monkey CV1 cells by transactivation assay; assay type: functional, cell-based, CV-1
T1 sequence (Q07869 whole entry): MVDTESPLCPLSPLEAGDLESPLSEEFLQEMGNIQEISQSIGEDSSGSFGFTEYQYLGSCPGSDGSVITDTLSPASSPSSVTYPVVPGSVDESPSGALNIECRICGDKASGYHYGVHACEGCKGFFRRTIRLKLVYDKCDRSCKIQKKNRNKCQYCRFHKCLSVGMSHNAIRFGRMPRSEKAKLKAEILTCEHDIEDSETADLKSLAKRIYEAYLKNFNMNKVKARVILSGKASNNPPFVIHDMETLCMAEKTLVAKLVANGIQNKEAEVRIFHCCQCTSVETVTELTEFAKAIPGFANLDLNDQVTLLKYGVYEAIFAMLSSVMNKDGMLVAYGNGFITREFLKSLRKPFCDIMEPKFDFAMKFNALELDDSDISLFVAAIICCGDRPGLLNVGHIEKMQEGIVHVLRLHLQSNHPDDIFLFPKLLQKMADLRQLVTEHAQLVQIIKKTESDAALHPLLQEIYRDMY

[2] = biological target: T2, Peroxisome proliferator-activated receptor delta (Homo sapiens) (UniProt Q03181); test: Agonist activity at human PPARdelta expressed in monkey CV1 cells at 10 uM by transactivation assay; assay type: functional, cell-based; conditions: CV-1
T2 sequence (whole entry): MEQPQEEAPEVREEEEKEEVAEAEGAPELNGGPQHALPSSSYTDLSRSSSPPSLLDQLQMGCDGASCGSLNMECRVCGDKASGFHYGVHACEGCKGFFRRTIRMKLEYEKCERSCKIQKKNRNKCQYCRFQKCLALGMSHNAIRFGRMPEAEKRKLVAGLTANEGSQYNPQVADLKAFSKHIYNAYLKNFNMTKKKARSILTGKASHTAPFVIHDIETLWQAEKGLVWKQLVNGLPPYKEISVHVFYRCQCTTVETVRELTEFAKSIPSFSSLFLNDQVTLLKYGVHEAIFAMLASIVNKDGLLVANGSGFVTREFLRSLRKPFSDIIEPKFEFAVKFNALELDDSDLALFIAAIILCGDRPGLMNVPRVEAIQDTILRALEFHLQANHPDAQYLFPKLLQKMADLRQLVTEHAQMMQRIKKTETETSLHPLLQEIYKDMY

[3] = biological target: T3, Peroxisome proliferator-activated receptor gamma (Homo sapiens, UniProt P37231)
T3 sequence (P37231 whole entry): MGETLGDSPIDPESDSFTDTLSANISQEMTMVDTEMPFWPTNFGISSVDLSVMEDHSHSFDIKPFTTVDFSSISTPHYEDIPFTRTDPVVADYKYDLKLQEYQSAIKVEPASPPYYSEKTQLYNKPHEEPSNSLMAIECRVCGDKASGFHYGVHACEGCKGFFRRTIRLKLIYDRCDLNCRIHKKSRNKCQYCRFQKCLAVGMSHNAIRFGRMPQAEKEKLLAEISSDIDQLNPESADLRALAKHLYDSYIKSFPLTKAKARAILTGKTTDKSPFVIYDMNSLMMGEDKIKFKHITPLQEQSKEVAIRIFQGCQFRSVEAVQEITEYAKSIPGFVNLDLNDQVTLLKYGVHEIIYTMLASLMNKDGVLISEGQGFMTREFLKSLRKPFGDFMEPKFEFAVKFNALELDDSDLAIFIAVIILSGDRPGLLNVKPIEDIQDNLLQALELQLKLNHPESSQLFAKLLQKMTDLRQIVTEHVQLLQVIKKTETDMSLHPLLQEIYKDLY

[4] = biological target: T4, Peroxisome proliferator-activated receptor gamma (Homo sapiens) (UniProt P37231); test: Agonist activity at human PPARgamma expressed in monkey CV1 cells at 10 uM by transactivation assay; assay type: functional, cell-based; conditions: CV-1
T4 sequence (whole entry): T3 sequence (P37231 whole entry)

[5] = biological target: T5, Peroxisome proliferator-activated receptor alpha (Homo sapiens) (UniProt Q07869); test: Agonist activity at human PPARalpha expressed in monkey CV1 cells at 10 uM by transactivation assay; assay type: functional, cell-based; conditions: CV-1
T5 sequence (whole entry): T1 sequence (Q07869 whole entry)

[6] = system: Mus musculus; test: Hypoglycemic effect on diabetic KKAy mouse model assessed as reduction of plasma glucose level at 3 mg/kg, po QD for 4 days; assay type: functional; parameters: scale not given: the % may be the effect or the level left
[7] = species: Homo sapiens; test: Selectivity of human PPARalpha over human PPARgamma
[8] = species: Homo sapiens; test: Selectivity of human PPARalpha over human PPARdelta
[9] = system: Mus musculus; test: Hypolipidemic effect on diabetic KKAy mouse model assessed as reduction of plasma triglyceride level at 3 mg/kg, po QD for 4 days; assay type: functional; parameters: scale not given: the % may be the effect or the level left
[10] = system: Mus musculus; test: Hypoglycemic effect on diabetic KKAy mouse model assessed as reduction of plasma glucose level at 1 mg/kg, po QD for 4 days; assay type: functional; parameters: scale not given: the % may be the effect or the level left
[11] = biological target: T6, Peroxisome proliferator-activated receptor delta (Mus musculus) (UniProt P35396); test: Agonist activity at mouse PPARdelta at 10 uM by transactivation assay; assay type: functional
T6 sequence (whole entry): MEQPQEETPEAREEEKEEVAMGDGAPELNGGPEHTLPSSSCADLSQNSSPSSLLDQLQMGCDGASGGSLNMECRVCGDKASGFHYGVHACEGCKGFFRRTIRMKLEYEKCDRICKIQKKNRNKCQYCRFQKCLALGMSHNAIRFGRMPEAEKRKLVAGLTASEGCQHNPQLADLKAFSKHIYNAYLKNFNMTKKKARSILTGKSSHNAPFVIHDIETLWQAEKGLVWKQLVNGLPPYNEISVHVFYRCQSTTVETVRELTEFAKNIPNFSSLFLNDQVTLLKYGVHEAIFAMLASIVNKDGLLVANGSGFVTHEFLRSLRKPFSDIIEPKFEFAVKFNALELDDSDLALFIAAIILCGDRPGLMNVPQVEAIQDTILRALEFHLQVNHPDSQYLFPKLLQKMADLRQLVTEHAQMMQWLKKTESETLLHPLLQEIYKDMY

[12] = system: Mus musculus; test: (§1) Hypolipidemic effect on diabetic KKAy mouse model assessed as increase in HDL cholesterol level at 3 mg/kg, po QD for 4 days; assay type: functional
[13] = system: Mus musculus; test: Hypolipidemic effect on diabetic KKAy mouse model assessed as reduction of VLDL cholesterol level at 1 mg/kg, po QD for 4 days; assay type: functional; parameters: scale not given: the % may be the effect or the level left
[14] = biological target: T7, Peroxisome proliferator-activated receptor gamma (Mus musculus) (UniProt P37238); test: Agonist activity at mouse PPARgamma at 10 uM by transactivation assay; assay type: functional
T7 sequence (whole entry): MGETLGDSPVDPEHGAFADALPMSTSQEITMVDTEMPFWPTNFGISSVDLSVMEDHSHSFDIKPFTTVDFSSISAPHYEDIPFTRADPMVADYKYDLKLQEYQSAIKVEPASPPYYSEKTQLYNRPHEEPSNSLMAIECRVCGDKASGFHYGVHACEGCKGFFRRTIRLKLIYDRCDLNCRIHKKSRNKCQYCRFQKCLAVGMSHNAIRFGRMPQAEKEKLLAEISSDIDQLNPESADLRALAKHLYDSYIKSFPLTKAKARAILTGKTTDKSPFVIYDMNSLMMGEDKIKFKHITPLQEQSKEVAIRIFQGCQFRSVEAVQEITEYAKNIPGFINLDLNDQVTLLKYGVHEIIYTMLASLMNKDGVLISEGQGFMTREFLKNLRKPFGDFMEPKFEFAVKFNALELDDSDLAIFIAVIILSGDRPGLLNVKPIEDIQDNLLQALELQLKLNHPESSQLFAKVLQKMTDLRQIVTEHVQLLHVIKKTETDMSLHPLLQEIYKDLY

[15] = system: Mus musculus; test: Hypolipidemic effect on diabetic KKAy mouse model assessed as reduction of VLDL cholesterol level at 3 mg/kg, po QD for 4 days; assay type: functional; parameters: scale not given: the % may be the effect or the level left
[16] = system: Mus musculus; test: Hypolipidemic effect on diabetic KKAy mouse model assessed as reduction of plasma triglyceride level at 1 mg/kg, po QD for 4 days; assay type: functional; parameters: scale not given: the % may be the effect or the level left
[17] = system: Mus musculus; test: as §1; assay type: functional; remark: listed apart in the source
[18] = biological target: T8, Peroxisome proliferator-activated receptor delta (Homo sapiens, UniProt Q03181); test: Agonist activity at human PPARdelta expressed in monkey CV1 cells by transactivation assay; assay type: functional, cell-based, CV-1
T8 sequence (Q03181 whole entry): T2 sequence (whole entry)

[19] = system: Mus musculus; test: Hypolipidemic effect on diabetic KKAy mouse model assessed as reduction of plasma triglyceride level at 300 mg/kg, po QD for 4 days; assay type: functional; parameters: scale not given: the % may be the effect or the level left
[20] = system: Mus musculus; test: Hypolipidemic effect on diabetic KKAy mouse model assessed as increase in HDL cholesterol level at 300 mg/kg, po QD for 4 days; assay type: functional
[21] = system: Mus musculus; test: Hypoglycemic effect on diabetic KKAy mouse model assessed as reduction of plasma glucose level at 300 mg/kg, po QD for 4 days; assay type: functional; parameters: scale not given: the % may be the effect or the level left
[22] = system: Mus musculus; test: Hypolipidemic effect on diabetic KKAy mouse model assessed as reduction of VLDL cholesterol level at 300 mg/kg, po QD for 4 days; assay type: functional; parameters: scale not given: the % may be the effect or the level left
[23] = biological target: T9, Peroxisome proliferator-activated receptor gamma (Mus musculus, UniProt P37238); test: Agonist activity at mouse PPARgamma by transactivation assay; assay type: functional
T9 sequence (P37238 whole entry): T7 sequence (whole entry)

[24] = biological target: T10, Peroxisome proliferator-activated receptor alpha (Mus musculus, UniProt P23204); test: Agonist activity at mouse PPARalpha by transactivation assay; assay type: functional
T10 sequence (P23204 whole entry): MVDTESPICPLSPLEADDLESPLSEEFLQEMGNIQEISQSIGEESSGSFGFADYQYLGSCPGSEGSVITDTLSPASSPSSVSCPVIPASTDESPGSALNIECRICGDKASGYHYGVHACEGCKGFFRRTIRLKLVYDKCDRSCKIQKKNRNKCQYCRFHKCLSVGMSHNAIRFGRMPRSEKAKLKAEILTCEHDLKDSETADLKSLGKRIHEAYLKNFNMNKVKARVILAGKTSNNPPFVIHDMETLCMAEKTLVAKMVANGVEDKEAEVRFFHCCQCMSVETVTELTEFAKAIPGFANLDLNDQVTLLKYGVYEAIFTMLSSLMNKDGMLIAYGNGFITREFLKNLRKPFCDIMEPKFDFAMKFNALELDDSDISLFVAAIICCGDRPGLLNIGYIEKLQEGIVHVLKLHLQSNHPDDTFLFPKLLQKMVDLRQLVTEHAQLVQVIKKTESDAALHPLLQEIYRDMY

## Cc1oc(-c2ccccc2)nc1CCCC[C@H]1CO[C@@](CC(C)C)(C(=O)O)OC1
[1]
  pEC50: 7.52
[2]
  Activity: 6%
[3]
  pEC50: 5.00

## Cc1oc(-c2ccccc2)nc1Cc1cccc([C@H]2CO[C@@](C)(C(=O)O)OC2)c1
[4]
  Activity: 12%
[1]
  pEC50: 5.52
[2]
  Activity: 7%

## Cc1oc(-c2ccccc2)nc1CCCC[C@H]1CO[C@@H](C(=O)O)OC1
[4]
  Activity: 0%
[5]
  Activity: 8%
[2]
  Activity: 3%

## Cc1oc(-c2ccccc2)nc1Cc1ccc([C@H]2CO[C@@](C)(C(=O)O)OC2)cc1
[4]
  Activity: 10%
[5]
  Activity: 5%
[2]
  Activity: 0%

## Cc1oc(-c2ccccc2)nc1CCCC[C@H]1CO[C@@](C)(C(=O)O)OC1
[6]
  Activity: 13%
[7]
  Ratio EC50: > 300
[8]
  Ratio EC50: > 300
[9]
  Activity: 56%
[10]
  Activity: 12%
[11]
  Activity: 6%
[2]
  Activity: 0%
[12]
  Activity: 36%
[13]
  Activity: 29%
[14]
  Activity: 21%
[15]
  Activity: 49%
[16]
  Activity: 46%
[17]
  Activity: 55%

## CC(C)(Oc1ccc(CCNC(=O)c2ccc(Cl)cc2)cc1)C(=O)O [BEZAFIBRATE]
[3]
  pEC50: 4.00

## Cc1oc(-c2ccccc2)nc1CCC[C@H]1CO[C@@](C)(C(=O)O)OC1
[4]
  Activity: 2%
[5]
  Activity: 8%
[2]
  Activity: 12%

## Cc1oc(-c2ccccc2)nc1CCCCCCOC(C)(C)C(=O)O
[18]
  pEC50: 4.52
[3]
  pEC50: 6.52
[16]
  Activity: 32%

## CC(C)OC(=O)C(C)(C)Oc1ccc(C(=O)c2ccc(Cl)cc2)cc1 [FENOFIBRATE]
[19]
  Activity: 40%
[20]
  Activity: 17%
[21]
  Activity: 25%
[22]
  Activity: 31%

## Cc1oc(-c2ccccc2)nc1Cc1cccc(C[C@H]2CO[C@@](C)(C(=O)O)OC2)c1
[1]
  pEC50: 5.52
[2]
  Activity: 28%
[3]
  pEC50: 6.00

## Cc1oc(-c2ccccc2)nc1CCCC[C@H]1CO[C@](C)(C(=O)O)OC1
[1]
  pEC50: 5.52
[2]
  Activity: 10%
[3]
  pEC50: 4.52

## CC[C@]1(C(=O)O)OC[C@@H](CCCCc2nc(-c3ccccc3)oc2C)CO1
[6]
  Activity: 18%
[23]
  pEC50: 5.00
[9]
  Activity: 52%
[11]
  Activity: 7%
[1]
  pEC50: 7.52
[2]
  Activity: 19%
[3]
  pEC50: 5.00
[24]
  pEC50: 7.00
[15]
  Activity: 26%
[17]
  Activity: 5%

## Cc1oc(-c2ccccc2)nc1Cc1ccc(C[C@H]2CO[C@@](C)(C(=O)O)OC2)cc1
[1]
  pEC50: 5.52
[2]
  Activity: 38%
[3]
  pEC50: 5.52

## Cc1oc(-c2ccccc2)nc1CCCCC[C@H]1CO[C@@](C)(C(=O)O)OC1
[1]
  pEC50: 7.00
[2]
  Activity: 34%
[3]
  pEC50: 6.52
